Results reported in patent US7632811B2, “Analogs of parathyroid hormone” (Societe de Conseils de Recherches et D'Applications …, priority 1995, dated 2009).
Non-standard residues stand in square brackets, D forms with d. Residues, ends and D or L forms follow the SMILES beside them. Cha = N[C@@H](CC1CCCCC1)C(=O)O; Nle = CCCC[C@H](N)C(=O)O; Aib = CC(C)(N)C(=O)O

molecular target: T1, PTH receptor present on SaOS-2 (human osteosarcoma cells) (Homo sapiens, UniProt Q03431); test: Binding to PTH receptor on SaOS-2 cells (competition with mono-125I-[Nle8,18,Tyr34(3-125I)]bPTH(1-34)NH2); settings: Table I, 2 hrs at room temperature, read-out: Kd (half maximal inhibition of binding of mono-125I-[Nle8,18, Tyr34(3-125I)]bPTH(1-34)NH2)
T1 construct: host or cells: SaOS-2 human osteosarcoma cells (intact, confluent monolayers)
T1 sequence (Q03431 27-593): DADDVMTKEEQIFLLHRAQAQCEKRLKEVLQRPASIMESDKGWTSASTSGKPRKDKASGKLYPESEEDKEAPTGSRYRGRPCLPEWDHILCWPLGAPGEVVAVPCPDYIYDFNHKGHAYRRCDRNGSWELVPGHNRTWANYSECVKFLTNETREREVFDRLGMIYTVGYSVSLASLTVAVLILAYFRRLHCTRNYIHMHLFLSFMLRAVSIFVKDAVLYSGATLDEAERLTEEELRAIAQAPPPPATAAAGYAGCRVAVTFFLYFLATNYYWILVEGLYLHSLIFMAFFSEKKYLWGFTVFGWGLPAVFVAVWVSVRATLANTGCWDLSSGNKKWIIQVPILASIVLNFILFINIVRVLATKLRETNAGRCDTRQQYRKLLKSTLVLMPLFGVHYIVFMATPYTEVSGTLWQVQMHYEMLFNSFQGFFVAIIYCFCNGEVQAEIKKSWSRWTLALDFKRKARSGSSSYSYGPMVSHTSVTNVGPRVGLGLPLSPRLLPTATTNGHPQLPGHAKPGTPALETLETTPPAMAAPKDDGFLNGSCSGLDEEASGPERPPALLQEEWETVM
Description: A. Binding to PTH Receptor
The peptides of the invention were tested for their ability to bind to the PTH receptor present on SaOS-2 (human osteosarcoma cells). SaOS-2 cells (American Type Culture Collection, Rockville, Md.; ATCC #HTB 85) were maintained in RPMI 1640 medium (Sigma, St. Louis, Mo.) supplemented with 10% fetal bovine serum (FBS) and 2 mM glutamine at 37EC in a humidified atmosphere of 5% CO2 in air. The medium was changed every three or four days, and the cells were subcultured every week by trypsinization.
SaOS-2 cells were maintained for four days until they had reached confluence. The medium was replaced with 5% FBS in RPMI 1640 medium and incubated for 2 hrs at room temperature with 10×10^4 cpm mono-^125I-[Nle^8,18, Tyr^34(3-^125I)]bPTH(1-34)NH2 in the presence of a competing peptides of the invention at various concentrations between 10^−11 M to 10^−4 M. The cells were washed four times with ice-cold PBS and lysed with 0.1 M NaOH, and the radioactivity associated with the cells was counted in a scintillation counter. Synthesis of mono-^125I-[Nle^8,18, Tyr^34(3-^125I)]bPTH(1-34)NH2 was carried out as described in Goldman, M. E., et al., Endocrinol., 123:1468 (1988).
The binding assay was conducted with various peptides of the invention, and the Kd value (half maximal inhibition of binding of mono-^125I-[Nle^8,18, Tyr^34(3-^125I)]bPTH(1-34)NH2) for each peptide was calculated.

Kd	SMILES
5 nM	CC[C@H](C)[C@H](NC(=O)[C@H](CCC(=O)O)NC(=O)[C@H](CO)NC(=O)[C@@H](NC(=O)[C@@H](N)CO)C(C)C)C(=O)N[C@@H](CCC(N)=O)C(=O)N[C@@H](CC(C)C)C(=O)N[C@@H](CCSC)C(=O)N[C@@H](Cc1c[nH]cn1)C(=O)N[C@@H](CC(N)=O)C(=O)N[C@@H](CC1CCCCC1)C(=O)NCC(=O)N[C@@H](CCCCN)C(=O)N[C@@H](Cc1c[nH]cn1)C(=O)N[C@@H](CC(C)C)C(=O)N[C@@H](CC(N)=O)C(=O)N[C@@H](CO)C(=O)N[C@@H](CCSC)C(=O)N[C@@H](CCC(=O)O)C(=O)N[C@@H](CCCNC(=N)N)C(=O)N[C@H](C(=O)N[C@@H](CCC(=O)O)C(=O)N[C@@H](Cc1c[nH]c2ccccc12)C(=O)N[C@@H](CC(C)C)C(=O)N[C@@H](CCCNC(=N)N)C(=O)N[C@@H](CCCCN)C(=O)N[C@@H](CCCCN)C(=O)N[C@@H](CC(C)C)C(=O)N[C@@H](CCC(N)=O)C(=O)N[C@@H](CC(=O)O)C(=O)N[C@H](C(=O)N[C@@H](Cc1c[nH]cn1)C(=O)N[C@@H](CC(N)=O)C(=O)N[C@@H](Cc1ccccc1)C(N)=O)C(C)C)C(C)C [[Cha^11]hPTH(1-34)NH2] (H-SVSEIQLMHN[Cha]GKHLNSMERVEWLRKKLQDVHNF-NH2)
4 nM	CC[C@H](C)[C@H](NC(=O)[C@H](CCC(=O)O)NC(=O)[C@H](CO)NC(=O)[C@@H](NC(=O)[C@@H](N)CO)C(C)C)C(=O)N[C@@H](CCC(N)=O)C(=O)N[C@@H](CC(C)C)C(=O)N[C@@H](CCSC)C(=O)N[C@@H](Cc1c[nH]cn1)C(=O)N[C@@H](CC(N)=O)C(=O)N[C@@H](CC(C)C)C(=O)NCC(=O)N[C@@H](CCCCN)C(=O)N[C@@H](Cc1c[nH]cn1)C(=O)N[C@@H](CC(C)C)C(=O)NC(C)(C)C(=O)N[C@@H](CO)C(=O)N[C@@H](CCSC)C(=O)N[C@@H](CCC(=O)O)C(=O)N[C@@H](CCCNC(=N)N)C(=O)N[C@H](C(=O)N[C@@H](CCC(=O)O)C(=O)N[C@@H](Cc1c[nH]c2ccccc12)C(=O)N[C@@H](CC(C)C)C(=O)N[C@@H](CCCNC(=N)N)C(=O)N[C@@H](CCCCN)C(=O)N[C@@H](CCCCN)C(=O)N[C@@H](CC(C)C)C(=O)N[C@@H](CCC(N)=O)C(=O)N[C@@H](CC(=O)O)C(=O)N[C@H](C(=O)N[C@@H](Cc1c[nH]cn1)C(=O)N[C@@H](CC(N)=O)C(=O)N[C@@H](Cc1ccccc1)C(N)=O)C(C)C)C(C)C [[Aib^16]hPTH(1-34)NH2] (H-SVSEIQLMHNLGKHL[Aib]SMERVEWLRKKLQDVHNF-NH2)
4 nM	CCCC[C@H](NC(=O)[C@H](CC(=O)O)NC(=O)[C@H](CCC(N)=O)NC(=O)[C@H](CC(C)C)NC(=O)[C@H](CCCCN)NC(=O)[C@H](CCCCN)NC(=O)[C@H](CCCNC(=N)N)NC(=O)[C@H](CC(C)C)NC(=O)[C@H](Cc1c[nH]c2ccccc12)NC(=O)[C@H](CCC(=O)O)NC(=O)[C@@H](NC(=O)[C@H](CCCNC(=N)N)NC(=O)[C@H](CCC(=O)O)NC(=O)[C@H](CCSC)NC(=O)[C@H](CO)NC(=O)[C@H](CC(N)=O)NC(=O)[C@H](CC(C)C)NC(=O)[C@H](Cc1c[nH]cn1)NC(=O)[C@H](CCCCN)NC(=O)CNC(=O)[C@H](CC(C)C)NC(=O)[C@H](CC(N)=O)NC(=O)[C@H](Cc1c[nH]cn1)NC(=O)[C@H](CCSC)NC(=O)[C@H](CC(C)C)NC(=O)[C@H](CCC(N)=O)NC(=O)[C@@H](NC(=O)[C@H](CCC(=O)O)NC(=O)[C@H](CO)NC(=O)[C@@H](NC(=O)[C@@H](N)CO)C(C)C)[C@@H](C)CC)C(C)C)C(=O)N[C@@H](Cc1c[nH]cn1)C(=O)N[C@@H](CC(N)=O)C(=O)N[C@@H](Cc1ccccc1)C(N)=O [[Nle^31]hPTH(1-34)NH2] (H-SVSEIQLMHNLGKHLNSMERVEWLRKKLQD[Nle]HNF-NH2)

More lines, now with the values behind:

SMILES	Kd
CC[C@H](C)[C@H](NC(=O)[C@H](CCC(=O)O)NC(=O)[C@H](CO)NC(=O)[C@@H](NC(=O)[C@@H](N)CO)C(C)C)C(=O)N[C@@H](CCC(N)=O)C(=O)N[C@@H](CC(C)C)C(=O)N[C@@H](CCSC)C(=O)N[C@@H](Cc1c[nH]cn1)C(=O)N[C@@H](CC(N)=O)C(=O)N[C@@H](CC(C)C)C(=O)NCC(=O)N[C@@H](CCCCN)C(=O)N[C@@H](Cc1c[nH]cn1)C(=O)N[C@@H](CC(C)C)C(=O)N[C@@H](CC(N)=O)C(=O)N[C@@H](CO)C(=O)N[C@@H](CCSC)C(=O)N[C@@H](CCC(=O)O)C(=O)N[C@@H](CCCNC(=N)N)C(=O)N[C@H](C(=O)N[C@@H](CCC(=O)O)C(=O)N[C@@H](Cc1c[nH]c2ccccc12)C(=O)N[C@@H](CC1CCCCC1)C(=O)N[C@@H](CCCNC(=N)N)C(=O)N[C@@H](CCCCN)C(=O)N[C@@H](CCCCN)C(=O)N[C@@H](CC1CCCCC1)C(=O)N[C@@H](CCC(N)=O)C(=O)N[C@@H](CCCCN)C(=O)N[C@@H](CC1CCCCC1)C(=O)N[C@@H](Cc1c[nH]cn1)C(=O)N[C@@H](CC(N)=O)C(=O)N[C@@H](Cc1ccccc1)C(N)=O)C(C)C [[Cha^24,28,31, Lys^30]hPTH(1-34)NH2] (H-SVSEIQLMHNLGKHLNSMERVEW[Cha]RKK[Cha]QK[Cha]HNF-NH2)	500 nM
CC[C@H](C)[C@H](NC(=O)[C@H](CCC(=O)O)NC(=O)[C@H](CO)NC(=O)[C@@H](NC(=O)[C@@H](N)CO)C(C)C)C(=O)N[C@@H](CCC(N)=O)C(=O)N[C@@H](CC1CCCCC1)C(=O)N[C@@H](CCSC)C(=O)N[C@@H](Cc1c[nH]cn1)C(=O)N[C@@H](CC(N)=O)C(=O)N[C@@H](CC1CCCCC1)C(=O)NCC(=O)N[C@@H](CCCCN)C(=O)N[C@@H](Cc1c[nH]cn1)C(=O)N[C@@H](CC(C)C)C(=O)NC(C)(C)C(=O)N[C@@H](CO)C(=O)N[C@@H](CCSC)C(=O)N[C@@H](CCC(=O)O)C(=O)N[C@@H](CCCNC(=N)N)C(=O)N[C@H](C(=O)N[C@@H](CCC(=O)O)C(=O)N[C@@H](Cc1c[nH]c2ccccc12)C(=O)N[C@@H](CC(C)C)C(=O)N[C@@H](CCCNC(=N)N)C(=O)N[C@@H](CCCCN)C(=O)N[C@@H](CCCCN)C(=O)N[C@@H](CC(C)C)C(=O)N[C@@H](CCC(N)=O)C(=O)N[C@@H](CC(=O)O)C(=O)N[C@H](C(=O)N[C@@H](Cc1c[nH]cn1)C(=O)N[C@@H](CC(N)=O)C(=O)N[C@@H](Cc1ccccc1)C(N)=O)C(C)C)C(C)C [[Cha^7,11, Aib^16]hPTH(1-34)NH2] (H-SVSEIQ[Cha]MHN[Cha]GKHL[Aib]SMERVEWLRKKLQDVHNF-NH2)	4 nM
CCCC[C@H](NC(=O)[C@H](CO)NC(=O)[C@H](CC(N)=O)NC(=O)[C@H](CC(C)C)NC(=O)[C@H](Cc1c[nH]cn1)NC(=O)[C@H](CCCCN)NC(=O)CNC(=O)[C@H](CC(C)C)NC(=O)[C@H](CC(N)=O)NC(=O)[C@H](Cc1c[nH]cn1)NC(=O)[C@H](CCCC)NC(=O)[C@H](CC(C)C)NC(=O)[C@H](CCC(N)=O)NC(=O)[C@@H](NC(=O)[C@H](CCC(=O)O)NC(=O)[C@H](CO)NC(=O)[C@@H](NC(=O)[C@@H](N)CO)C(C)C)[C@@H](C)CC)C(=O)N[C@@H](CCC(=O)O)C(=O)N[C@@H](CCCNC(=N)N)C(=O)N[C@H](C(=O)N[C@@H](CCC(=O)O)C(=O)N[C@@H](Cc1c[nH]c2ccccc12)C(=O)N[C@@H](CC(C)C)C(=O)N[C@@H](CCCNC(=N)N)C(=O)N[C@@H](CCCCN)C(=O)N[C@@H](CC1CCCCC1)C(=O)N[C@@H](CC(C)C)C(=O)N[C@@H](CCC(N)=O)C(=O)N[C@@H](CC(=O)O)C(=O)N[C@H](C(=O)N[C@@H](Cc1c[nH]cn1)C(=O)N[C@@H](CC(N)=O)C(=O)N[C@@H](Cc1ccccc1)C(N)=O)C(C)C)C(C)C [[Nle^8,18, Cha^27]hPTH(1-34)NH2] (H-SVSEIQL[Nle]HNLGKHLNS[Nle]ERVEWLRK[Cha]LQDVHNF-NH2)	50 nM
